Earlier results, collected in patent publication US20080138388A1 (priority 2005, published 2008).
Where two headings read alike, the source gives them in different places.

SMILES | logP (octanol-water partition coefficient, free state) (free state) | logP (octanol-water partition coefficient, free state)
Nc1c(Br)cc(Br)cc1CN[C@H]1CC[C@H](O)CC1 [ambroxol] | 3.00 | 
CCCN1C[C@H](CSC)C[C@@H]2c3cccc4[nH]cc(c34)C[C@H]21 [pergolide] | 4.07 | 
OC(CCN1CCCCC1)(c1ccccc1)c1ccccc1 [pridinol] | 3.79 | 
CCOc1ccccc1OCCN[C@H](C)Cc1ccc(OC)c(S(N)(=O)=O)c1 [tamsulosin] | 3.22 | 
CCOC(=O)[C@H](CCc1ccccc1)N[C@@H](C)C(=O)N1[C@H](C(=O)O)C[C@H]2CCCC[C@@H]21 [trandopril] |  | 4.00
